Patent US11478479B2, “Dosing with an azolopyrimidine compound” (ARCUS BIOSCIENCES, INC., priority 2018, dated 2022)

What was measured:
[1] = Safety and tolerability in healthy volunteers; assay type: in vivo, human; conditions: doses of up to 150 mg
Text: Safety and tolerability assessments will consist of adverse events (AEs), clinical laboratory, vital signs, 12-lead ECG, telemetry, physical examination, Bond and Lader Visual Analog Scale (VAS) of Mood and Alertness, and Digit Symbol Substitution Test (DSST). Assessments will be performed in accordance with the schedules of assessments.

[2] = Single ascending dose (SAD) pharmacokinetics, Compound I in plasma; assay type: in vivo, human
Text: The SAD part consists of 5 groups of 8 healthy young male and female participants, gender balanced to the extent possible, receiving a single oral dose in Groups 1 to 4 or 2 doses in Group 5 of Compound I or placebo (randomized 3:1, active vs placebo, respectively). All participants in the SAD portion of the study must be fasting prior to receiving Compound I. All groups will be evaluated based on pharmacokinetic (PK), safety and tolerability prior to escalation to the next highest group or starting the MAD portion of the study.
For Groups 1 to 4, the study drug will be administered with the participant in the upright position. Study drug will be administered to participants between 08:00 and 9:00 hours in the morning. Before the morning dose, participants will be fasted overnight for at least 10 hours following a light supper on the evening before. Within a period, dosing should be at the same time each day 15 minutes. The study drug will be swallowed together with 240 mL tap water. The study drug should not be chewed. Fasting will continue for a period of 4 hours after drug administration. During fasting, no fluids are allowed except water; however, water is not allowed from 2 hours pre-dose until 1 hour post-dose. When not fasting, non-caffeinated fluids are allowed ad libitum. […]

[3] = biological target: T1, A2aR (Homo sapiens, UniProt P29274); experiment: pCREB (marker for A2R inhibition) by flow cytometry in blood CD8+ T cells stimulated ex vivo with 5 μM NECA
T1 construct: all subjects responded to 5 μM NECA by increasing the levels of pCREB in their blood CD8+ T cells; endogenous in cells; host or cells: blood CD8+ T cells of trial subjects (ex vivo)
T1 sequence (P29274 whole entry): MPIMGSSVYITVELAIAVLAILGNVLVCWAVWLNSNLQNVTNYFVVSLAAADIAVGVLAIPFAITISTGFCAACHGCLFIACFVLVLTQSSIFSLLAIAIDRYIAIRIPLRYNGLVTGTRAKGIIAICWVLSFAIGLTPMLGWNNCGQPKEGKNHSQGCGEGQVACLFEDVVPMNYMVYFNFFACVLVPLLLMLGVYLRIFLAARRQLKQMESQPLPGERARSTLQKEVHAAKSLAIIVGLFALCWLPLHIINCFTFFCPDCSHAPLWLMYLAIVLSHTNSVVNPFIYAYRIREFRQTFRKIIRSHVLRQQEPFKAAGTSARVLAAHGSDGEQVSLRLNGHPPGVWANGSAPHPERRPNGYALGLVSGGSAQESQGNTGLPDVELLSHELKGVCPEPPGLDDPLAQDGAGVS
Text: The assessment of pCREB (a marker for A2R inhibition) by flow cytometry will be conducted during the study.

half-life ([2]; both sexes, human, plasma, healthy volunteers, following a single oral dose): ~20 h
plasma levels of Compound I with increased doses ([2]; healthy volunteers, 10, 25, 75 and 150 mg, FIG. 1): dose proportional increases
inhibition at 75 mg ([3]; 75 mg once daily, in the presence of 5 μM NECA, projected from single-dose PK profiles, FIG. 2, read-out: expected inhibition of A2R at steady-state plasma levels): 90%
inhibition of NECA-mediated activation of A2aR ([3]; 150 mg, 24 hours after dosing, 5 μM NECA): approximately 90%
pCREB response relative to the response seen pre-dose ([3]; 150 mg, 24 hours after dosing, blood CD8+ T cells, 5 μM NECA, FIG. 3): approximately 10%
pCREB activation signal in response to NECA ([3]; 150 mg, two hours after dosing, blood CD8+ T cells, 5 μM NECA, FIG. 3): no detectable increase in pCREB levels
Structure (SMILES): Cc1c(C#N)cccc1-c1cc(-c2cn(Cc3cccc(C(C)(C)O)n3)nn2)nc(N)n1 [Compound I, 3-(2-amino-6-(1-((6-(2-hydroxypropan-2-yl)pyridin-2-yl)methyl)-1H-1,2,3-triazol-4-yl)pyrimidin-4-yl)-2-methylbenzonitrile]
safety issues [1]: no safety issues have been identified
